Assay [1] has as its system HCT-116. Put plainly: Cytotoxicity against human HCT116 cells assessed as growth inhibition at 50 uM after 48 hrs by sulforhodamine B assay relative to control. It counts as functional. The note with it: HCT-116, 48 h, read-out: GI. (The SRB assay estimates cell density from bound dye.)
Assay [2] concerns THP-1. Kind of assay: Cytotoxicity against human THP1 cells assessed as growth inhibition at 50 uM after 48 hrs by sulforhodamine B assay relative to control. It counts as functional. The note with it: THP-1, 48 h, read-out: GI.
In assay [3] the test system is COLO 205. Put plainly: Cytotoxicity against human COLO205 cells assessed as growth inhibition at 50 uM after 48 hrs by sulforhodamine B assay relative to control. In kind it is functional. The note with it: COLO 205, 48 h, read-out: GI.
In the next assay the test system is A549. Kind of assay: Cytotoxicity against human A549 cells assessed as growth inhibition at 50 uM after 48 hrs by sulforhodamine B assay relative to control. It counts as functional. The note with it: A549, 48 h, read-out: GI.
Assay [4] has as its system PC-3. Kind of assay: Cytotoxicity against human PC3 cells assessed as growth inhibition at 50 uM after 48 hrs by sulforhodamine B assay relative to control. It counts as functional. The note with it: PC-3, 48 h, read-out: GI.
Assay [5] has as its system COLO 205. Put plainly: Cytotoxicity against human COLO205 cells assessed as growth inhibition after 48 hrs by sulforhodamine B assay. In kind it is functional, cell-based. The note with it: COLO 205, 48 h.
Assay [6] is described as follows: Cytotoxicity against human MIAPaCa2 cells assessed as growth inhibition at 50 uM after 48 hrs by sulforhodamine B assay relative to control. It counts as functional. The note with it: MIA PaCa-2, 48 h, read-out: GI.
In another assay the test system is HeLa. Kind of assay: Cytotoxicity against human HeLa cells assessed as growth inhibition at 50 uM after 48 hrs by sulforhodamine B assay relative to control. In kind it is functional. The note with it: read-out: GI.
Assay [7] relates to HCT-116. Kind of assay: Cytotoxicity against human HCT116 cells assessed as growth inhibition after 48 hrs by sulforhodamine B assay. In kind it is functional, cell-based. The note with it: HCT-116, 48 h.
Assay [8] deals with PC-3. Put plainly: Cytotoxicity against human PC3 cells assessed as growth inhibition after 48 hrs by sulforhodamine B assay. It counts as functional, cell-based. The note with it: PC-3, 48 h.
Assay [9] has as its system THP-1. Put plainly: Cytotoxicity against human THP1 cells assessed as growth inhibition after 48 hrs by sulforhodamine B assay. In kind it is functional, cell-based. The note with it: THP-1, 48 h.
A further assay has as its system CAKI-1. Kind of assay: Cytotoxicity against human Caki1 cells assessed as growth inhibition at 50 uM after 48 hrs by sulforhodamine B assay relative to control. It counts as functional. The note with it: CAKI-1, 48 h, read-out: GI.

A word on the pIC50: it is the negative decadic logarithm of the IC50, by convention in mol/L.

The structures appear in SMILES notation. pIC50: −log10 of the molar value.

Consider `COc1ccccc1/C=C/C(=O)/C=C/c1ccc(OCc2cn(CCN3C(=O)C(=O)c4cc(Cl)ccc43)nn2)c(OC)c1`, for which the inhibition of growth at 50 µM in the assay on HCT-116 [1] was 50%; with THP-1 [2] it was 43%; in the assay with COLO 205 [3] it was 47%; in the assay on A549 it was 11%; with PC-3 [4] it was 42%.

As for `COc1ccc(/C=C/C(=O)/C=C/c2ccc(OCc3cn(CCN4C(=O)C(=O)c5cc(Cl)ccc54)nn3)c(OC)c2)cc1`, the inhibition of growth at 50 µM in the assay with HCT-116 [1] amounted to 66%; in the assay with THP-1 [2] it was 64%; in the assay with COLO 205 [3] it was 63%; in the assay with A549, 15%; in the assay with PC-3 [4], 60%; in assay [6], 10%. Also, the inhibition of growth at 50 µM in the assay with HeLa stood at 12%. For the same molecule, the pIC50 with COLO 205 [5] was 4.96; in the assay with HCT-116 [7] it was 5.11; in the assay with PC-3 [8], 4.90; with THP-1 [9] it was 5.01.

On to `COc1ccc(/C=C/C(=O)/C=C/c2ccc(OCc3cn(CCN4C(=O)C(=O)c5cc(Br)ccc54)nn3)c(OC)c2)cc1`, for which the inhibition of growth at 50 µM in the assay on HCT-116 [1] was 65%; in the assay on THP-1 [2], 60%; in the assay with COLO 205 [3] it was 59%; in the assay with PC-3 [4], 57%; in assay [6], 10%; in the assay on HeLa, 10%.

Regarding `COc1cc(/C=C/C(=O)/C=C/c2ccccc2)ccc1OCc1cn(CCN2C(=O)C(=O)c3cc(Br)ccc32)nn1`, the inhibition of growth at 50 µM was determined as 56% in the assay with HCT-116 [1]; 54% in the assay on THP-1 [2]; 51% in the assay on COLO 205 [3]; 11% in the assay on A549; 50% with PC-3 [4]; 16% in assay [6]. The values for the inhibition of growth at 50 µM with HeLa and with CAKI-1 were 14% and 12%, respectively.

In the case of `COc1cccc(/C=C/C(=O)/C=C/c2ccc(OCc3cn(CCN4C(=O)C(=O)c5cc(Cl)ccc54)nn3)c(OC)c2)c1`, the inhibition of growth at 50 µM with HCT-116 [1] was found to be 58%; in the assay on THP-1 [2], 55%; in the assay on COLO 205 [3] it was 52%; with A549 it was 13%; with PC-3 [4], 51%; in the assay with HeLa it was 10%.

As to `COc1ccccc1/C=C/C(=O)/C=C/c1ccc(OCc2cn(CCN3C(=O)C(=O)c4cc(Br)ccc43)nn2)c(OC)c1`, the inhibition of growth at 50 µM came to 50% in the assay with HCT-116 [1], 43% in the assay with THP-1 [2], 47% in the assay on COLO 205 [3] and 42% in the assay on PC-3 [4].

For the molecule `COc1cc(/C=C/C(=O)/C=C/c2ccc(Br)cc2)ccc1OCc1cn(CCN2C(=O)C(=O)c3cc(Cl)ccc32)nn1`, the inhibition of growth at 50 µM in the assay with HCT-116 [1] turned out to be 24%; in the assay with THP-1 [2] it was 25%; in the assay with COLO 205 [3], 20%; with PC-3 [4] it was 23%.

In the case of `COc1cc(/C=C/C(=O)/C=C/c2ccco2)ccc1OCc1cn(CCN2C(=O)C(=O)c3ccccc32)nn1`, the inhibition of growth at 50 µM with HCT-116 [1] was 78%; with THP-1 [2] it was 72%; in the assay with COLO 205 [3], 68%; with PC-3 [4], 65%; in assay [6] it was 10%; in the assay with CAKI-1 it was 12%. Moreover, the pIC50 is 5.12 in the assay with COLO 205 [5], 5.34 in the assay with HCT-116 [7], 5.08 in the assay on PC-3 [8] and 5.18 in the assay on THP-1 [9].

For the molecule `COc1cc(/C=C/C(=O)/C=C/c2ccc(Br)cc2)ccc1OCc1cn(CCN2C(=O)C(=O)c3ccccc32)nn1`, the inhibition of growth at 50 µM in the assay on HCT-116 [1] was 49%; in the assay with THP-1 [2], 48%; in the assay with COLO 205 [3], 47%; in the assay with PC-3 [4] it was 44%.

With `COc1cc(/C=C/C(=O)/C=C/c2ccc([N+](=O)[O-])cc2)ccc1OCc1cn(CCN2C(=O)C(=O)c3ccccc32)nn1`, the inhibition of growth at 50 µM with HCT-116 [1] was 39%; in the assay with THP-1 [2], 35%; in the assay on COLO 205 [3] it was 35%; in the assay with PC-3 [4], 33%.

Regarding `COc1cc(/C=C/C(=O)/C=C/c2cccc(Br)c2)ccc1OCc1cn(CCN2C(=O)C(=O)c3ccccc32)nn1`, the inhibition of growth at 50 µM in the assay on HCT-116 [1] was 42%; with THP-1 [2] it was 40%; in the assay with COLO 205 [3] it was 36%; in the assay on PC-3 [4] it was 35%.

`COc1cc(/C=C/C(=O)/C=C/c2cccc([N+](=O)[O-])c2)ccc1OCc1cn(CCN2C(=O)C(=O)c3ccccc32)nn1`: the inhibition of growth at 50 µM in the assay on HCT-116 [1] worked out at 25%; in the assay on THP-1 [2], 24%; with COLO 205 [3] it was 22%; in the assay on PC-3 [4] it was 20%.

As for `COc1ccc(/C=C/C(=O)/C=C/c2ccc(OCc3cn(CCN4C(=O)C(=O)c5cc(Br)ccc54)nn3)c(OC)c2)cc1OC`, the inhibition of growth at 50 µM in the assay on HCT-116 [1] amounted to 69%; with THP-1 [2], 65%; in the assay with COLO 205 [3], 63%; with A549 it was 10%; in the assay on PC-3 [4], 61%; in assay [6], 12%. Also, the inhibition of growth at 50 µM with HeLa is 12%; in the assay on CAKI-1, 10%.

Take `COc1cc(/C=C/C(=O)/C=C/c2ccccc2)ccc1OCc1cn(CCN2C(=O)C(=O)c3cc(Cl)ccc32)nn1`: the inhibition of growth at 50 µM in the assay on HCT-116 [1] was found to be 68%; with THP-1 [2], 65%; with COLO 205 [3], 63%; in the assay on A549 it was 21%; with PC-3 [4] it was 58%; in [6], 13%. The inhibition of growth at 50 µM came to 14% with HeLa and 13% with CAKI-1.

Regarding `COc1cc(/C=C/C(=O)/C=C/c2cccc3ccccc23)ccc1OCc1cn(CCN2C(=O)C(=O)c3cc(Cl)ccc32)nn1`, the inhibition of growth at 50 µM in the assay on HCT-116 [1] was 78%; with THP-1 [2], 76%; in the assay with COLO 205 [3], 74%; in the assay on PC-3 [4] it was 71%. For the same molecule, the pIC50 in the assay on COLO 205 [5] was 4.87; in the assay with HCT-116 [7], 5.03; with PC-3 [8] it was 4.85; with THP-1 [9], 4.95.

As for `COc1cc(/C=C/C(=O)/C=C/c2cccs2)ccc1OCc1cn(CCN2C(=O)C(=O)c3cc(Br)ccc32)nn1`, the inhibition of growth at 50 µM with HCT-116 [1] came to 34%; in the assay with THP-1 [2], 31%; with COLO 205 [3], 30%; in the assay on PC-3 [4] it was 28%.

As for `COc1cc(/C=C/C(=O)/C=C/c2cccs2)ccc1OCc1cn(CCN2C(=O)C(=O)c3ccccc32)nn1`, the inhibition of growth at 50 µM stood at 76% in the assay with HCT-116 [1]; 71% in the assay on THP-1 [2]; 66% in the assay with COLO 205 [3]; 63% in the assay with PC-3 [4]; 10% in the assay with CAKI-1. Further, the pIC50 in the assay on COLO 205 [5] is 5.11; with HCT-116 [7] it was 5.29; in the assay on PC-3 [8], 5.07; in the assay with THP-1 [9], 5.17.

The values are drawn from ChEMBL document CHEMBL3627713, “Triazole linked mono carbonyl curcumin-isatin bifunctional hybrids as novel anti tubulin agents: Design, synthesis, biological evaluation and molecular modeling studies” (Bioorg Med Chem, 2015).
